The record followed here is patent US20150133495A1 (ViroCura Therapeutics, Inc., priority 2013, published 2015).

Molecules are shown by their SMILES.

This test concerns HCV replicon (HCV1b sub-genomic, Huh-7 cells). In words: HCV replicon RNA replication assay (luciferase reporter). It is filed as cell-based, Hepatitis C virus (CON-1 genotype b). To be noted: Hepatitis C virus, Huh-7, 72 h, read-out: EC50 (Range). Here is the method: All curve fitting was conducted using non-linear regression analyses from PRISM (version 4.0c, GraphPad Inc.) and the determination of Rmax and EC50 or IC50 parameters were obtained from sigmoidal dose-response phase (variable slope) equation.
The replicon HCV1b is generated based on the wild-type sequence CON-1 genotype b (GenBank accession number AJ238799; Lohmann et al., Science 1999, 285: 110-113) and expressed the sub-genomic fragment HCV NS3-NS4A-NS4B-NS5A-NS5B. The replicon contain a hybrid HCV-IRES 5′UTR, a modified luciferase reporter gene expressed as a luciferase-Ubi-neomycin phosphotransferase gene fusion and an EMCV IRES NS3-NS5B subgenomic fragment with its 3′UTR. To generate cell lines harboring the replicon, Huh-7 cells are electroporated with purified in vitro HCV1b RNA transcripts and stable cell lines are selected in the presence of G418. Stable replicon cell lines are established as described in Science 1999, 285: 110-113. The amount of luciferase expressed by selected cells directly correlates with the level of HCV RNA replication, as measured by real-time PCR.
Stable HCV replicon cells are maintained in Dulbecco's Modified Eagle Medium (DMEM) supplemented with 10% FBS and 0.5 mg/ml G418. During the assay, DMEM supplemented with 10% FBS, containing 0.5% DMSO and lacking G418 are used as assay medium. For the assay, cell stocks are trypsinized and diluted in assay medium to distribute 7,500 cells in 96-well plates. The plates are then incubated at 37° until compound addition. Serial dilutions of the test compound are prepared in 100% DMSO, before dilution in assay medium to a final DMSO concentration of 0.5% to generate a concentration dose response curves. A fixed volume from each well of the compound dilution plate is transferred to a corresponding well of the cell culture plate. The cell culture plate is incubated at 37° C. with 5% CO2 for 72 hours. Following the 72 h incubation period, the medium is aspirated from the 96-well assay plate and a volume of 50_l of lysis buffer 100 mM Tris acetate, 20 mM Mg acetate, 2 mM EGTA, 3.6 mM ATP, 1% Brij 58, 0.7%_-mercaptoethanol containing 45_g/ml luciferine (pH 7.9) is added to each well. The luciferase activity is determined using the luciferase substrate and the luminescence is detected on a MicroBeta JET 1450 LSC & Luminescence Counter (Perkin Elmer) instrument. The luminescence in each well of the culture plate is a measure of the amount of HCV RNA replication in the presence of various concentrations of inhibitor. The % inhibition is calculated for each inhibitor concentration and used to determine the concentration that results in 50% inhibition of HCV replication (EC50).
In general, EC50 refers to the midpoint of the concentration-response curve. As to `Cc1nc(/C(N)=N\OC(=O)c2c(-c3ccccc3)noc2C)cs1` [Example 30, (E)-2-methyl-N′-((5-methyl-3-phenylisoxazole-4-carbonyl)oxy)thiazole-4-carboximidamide], the EC50 fell in the range of 1 to 10 µM.
Then `Cc1noc(C)c1C(=O)O/N=C(\N)c1ccc(Oc2ccccc2)cc1` [Example 31, (Z)—N′-((3,5-dimethylisoxazole-4-carbonyl)oxy)-4-phenoxybenzimidamide], with 1 to 10 µM.
`Cc1noc(C)c1C(=O)O/N=C(\N)c1ccc(OCc2ccc(Cl)cc2)cc1` [Example 32, (Z)-4-((4-chlorobenzyl)oxy)-N′-((3,5-dimethylisoxazole-4-carbonyl)oxy)benzimidamide]: the EC50 is 0.5 to 1 µM.
For `N/C(=N\OC(=O)c1cccc2ccccc12)c1ccc2c(c1)OCO2` [Example 33, (Z)—N′-((1-naphthoyl)oxy)benzo[d][1,3]dioxole-5-carboximidamide], the EC50 lay within 0.5 to 1 µM.
Turning to `Cc1onc(-c2ccccc2Cl)c1C(=O)O/N=C(\N)c1cccc(Br)c1` [Example 34, (Z)-3-Bromo-N′-((3-(2-chlorophenyl)-5-methylisoxazole-4-carbonyl)oxy)benzimidamide], the EC50 fell in the range of 1 to 10 µM.
Take `N/C(=N\OC(=O)c1ccccc1C(F)(F)F)c1ccc2c(c1)OCO2` [Example 35, (Z)—N′-((2-(trifluoromethyl)benzoyl)oxy)benzo[d][1,3]dioxole-5-carboximidamide]: the EC50 fell in the range of 1 to 10 µM.
Take `Cc1onc(-c2ccccc2Cl)c1C(=O)O/N=C(\N)c1ccc(-c2csnn2)cc1` [Example 36, (Z)—N′-((3-(2-chlorophenyl)-5-methylisoxazole-4-carbonyl)oxy)-4-(1,2,3-thiadiazol-4-yl)benzimidamide]: the EC50 fell in the range of 0.5 to 1 µM.
On to `Cc1cccc(C)c1C(=O)O/N=C(\N)Cc1ccc(OCc2ccc(F)cc2)cc1` [Example 37, (Z)—N′-((2,6-dimethylbenzoyl)oxy)-2-(4-((4-fluorobenzyl)oxy)phenyl)acetimidamide], for which the EC50 fell in the range of 0.5 to 1 µM.
In the case of `CC(C)OC(=O)c1ccccc1-c1ccccc1C(=O)O/N=C(\N)c1ccc2c(c1)OCO2` [Example 38, (Z)-isopropyl 2′-((((amino(benzo[d][1,3]dioxol-5-yl)methylene)amino)oxy)carbonyl)-[1,1′-biphenyl]-2-carboxylate], the EC50 is below 0.5 µM.
Take `Cc1cccc(C)c1C(=O)O/N=C(\N)c1ccc(OCc2ccc(Cl)cc2)cc1` [Example 40, (Z)-4-((4-chlorobenzyl)oxy)-N′-((2,6-dimethylbenzoyl)oxy)benzimidamide]: the half-maximal effective concentration (EC50) was below 0.5 µM.
As to `Cc1cccc(C)c1C(=O)O/N=C(\N)c1ccccc1OCc1ccc(F)cc1` [Example 41, (Z)—N′-((2,6-dimethylbenzoyl)oxy)-2-((4-fluorobenzyl)oxy)benzimidamide], the EC50 is below 0.5 µM.
Regarding `Cc1cccc(C)c1C(=O)O/N=C(\N)c1ccc(-c2csnn2)cc1` [Example 42, (Z)—N′-((2,6-dimethylbenzoyl)oxy)-4-(1,2,3-thiadiazol-4-yl)benzimidamide], the EC50 is 0.5 to 1 µM.
Then `Cc1ccc2ccccc2c1C(=O)O/N=C(\N)c1ccc2c(c1)OCO2` [Example 43, (Z)—N′-((2-methyl-1-naphthoyl)oxy)benzo[d][1,3]dioxole-5-carboximidamide], with 0.5 to 1 µM; and `N/C(=N\OC(=O)c1ccccc1Cc1ccccc1)c1ccc2c(c1)OCO2` [Example 44, (Z)—N′-((2-benzylbenzoyl)oxy)benzo[d][1,3]dioxole-5-carboximidamide], with 0.5 to 1 µM.
Take `N/C(=N\OC(=O)c1ccccc1-c1ccccc1C(=O)O)c1ccc2c(c1)OCO2` [Example 45, (Z)-2′-((((amino(benzo[d][1,3]dioxol-5-yl)methylene)amino)oxy)carbonyl)-[1,1′-biphenyl]-2-carboxylic acid]: the EC50 is above 10 µM.
With `COc1ccc(/C(N)=N/OC(=O)c2c(-c3ccccc3Cl)noc2C)cc1` [Example 46, (Z)—N′-((3-(2-chlorophenyl)-5-methylisoxazole-4-carbonyl)oxy)-4-methoxybenzimidamide], the EC50 was 0.5 to 1 µM.
With `Cc1onc(-c2ccccc2Cl)c1C(=O)O/N=C(\N)c1ccc2ccccc2n1` [Example 47, (Z)—N′-((3-(2-chlorophenyl)-5-methylisoxazole-4-carbonyl)oxy)quinoline-2-carboximidamide] the figure was 1 to 10 µM.
As to `Cc1onc(-c2ccccc2Cl)c1C(=O)O/N=C(\N)c1ccc(OCc2ccc(Cl)nc2)cc1` [Example 49, (Z)—N′-((3-(2-chlorophenyl)-5-methylisoxazole-4-carbonyl)oxy)-4-((6-chloropyridin-3-yl)methoxy)benzimidamide], the EC50 is below 0.5 µM.
With `COc1cccc(/C(N)=N/OC(=O)c2c(-c3ccccc3Cl)noc2C)c1` [Example 50, (Z)—N′-((3-(2-chlorophenyl)-5-methylisoxazole-4-carbonyl)oxy)-3-methoxybenzimidamide] the figure was 0.5 to 1 µM.
